Measured values: patent US20180369195A1, “COMBINATION THERAPY FOR TREATMENT OF MELANOMA” (The Regents of the University of California, priority 2015, published 2018)

Legend:
[1] = tested on: normal epidermal melanocytes; assay: CCK-8 proliferation assay, normal epidermal melanocytes; format: cell-based; conditions: 1-benzyl I3C treatment
[2] = tested on: LEF1; assay: Chromatin immunoprecipitation, LEF1 at MITF-M promoter; format: cell-based, human; conditions: G361 cells, 20 μM 1-benzyl I3C, 48 hours
[3] = tested on: canonical Wnt signaling; assay: TOP Flash Wnt reporter assay in G361 cells; format: cell-based, human
Procedure: Murine fibroblast L cells stably transfected with a construct expressing high levels of human Wnt3A were used. The cells were grown in DMEM containing 4.5 g/L Glucose, 114 mg/L Sodium Pyruvate, and 2 mM L-glutamine, supplemented with 10% fetal bovine serum (Gemini Bio Products), 2 mM L-glutamine, and 2.5 ml of 10,000 U/ml penicillin/streptomycin mixture (Gibco, Life Technologies). Conditioned media was harvested in two batches, once during routine media change after 2 days of seeding the cells and once more when the plates were confluent. The cells were trypsinized as described earlier using 0.025% trypsin (Lonza) and pelleting the cells by a spin at 4000 rpm for 5 minutes and aspirating and filtering the supernatant through a 0.2 micron filter to obtain the conditioned media. The two batches of conditioned media were mixed 1:1 and stored in aliquots at −80° C. for future use.
The TOPflash/FOPflash (Millipore) reporter assay was performed on G361 cells to assess the effect of 1-benzyl I3C on β-catenin driven Wnt transcriptional activity. TOPflash is a TCF/LEF responsive luciferase construct encoding the firefly luciferase reporter under the control of a minimal (m) CMV promoter and tandem repeats of a TCF/LEF transcriptional response element (TRE). FOPflash is a similar construct with the LEF-1 binding site mutated which serves as the negative control. G361 cells were cultured to approximately 80% confluency in a 6 well clear bottom plate (Nunc). The TOPflash/FOPflash construct was transfected using Superfect Transfection Reagent (Qiagen.) according to the manufactures instructions. […] 20 μl of supernatant from each sample was combined with 100 μl luciferase substrate (Promega) and emitted fluorescence was measured using luminometer, Lumat LB 9507 (EG&G Berthold) and the relative light units (RLU) were recorded. The RLU/μg for each sample was calculated by dividing the data obtained with their specific protein concentration determined by a Bradford assay using 1× BioRad Protein Assay reagent and measuring O.D at 595 nm. […]

[4] = tested on: normal melanocytes; assay: Flow cytometry analysis of DNA content, normal melanocytes; format: cell-based; conditions: varying doses of 1-benzyl I3C, 48 hours
[5] = tested on: phosphorylated Erk/MAPK; assay: Western blot of phosphorylated Erk/MAPK; format: cell-based, human; conditions: 200 μM I3C
Procedure: Western Blot analyses of samples electrophoretically fractionated on 12% acrylamide gels were carried out as previously described (Wagle et al., J. Clin. Oncol. 2011. 29(22):3085-3096; Nguyen et al., Chem. Biol. Interact. 2010. 186(3):255-266). […] The western blots employed the following primary antibodies: mouse anti-MITF-M (Thermo-scientific), mouse anti-HSP 90 (BD Biosciences), mouse anti-CDK2, rabbit anti-CDK4, rabbit anti-CDK-6, mouse anti-rabbit BRAF, goat anti-LEF-1, rabbit anti-AXIN, mouse anti-BCL2, (Santa Cruz), rabbit anti-P21, mouse anti-Cyclin D1, rabbit anti-MEK-p, rabbit anti-MEK1/2, rabbit anti-GSK3β rabbit anti-LRP6, rabbit anti-LRP6-phospho (Cell signaling), mouse anti-β-catenin (Invitrogen).

[6] = biological target: T1, BRAF-V600E (Homo sapiens, UniProt P15056, V600E); assay: In vitro BRAF kinase assay, in-vitro treated BRAF-V600E from G-361 cells; format: biochemical; conditions: pre-incubated 2 hours; 200 μM or 400 μM I3C
T1 construct: BRAF-V600E was immunoprecipitated from untreated G-361 cells and incubated in vitro; endogenous in cells; host or cells: G-361 human melanoma cells (ATCC)
Procedure: (§1) BRAF was pulled down from the cell lysates using anti-BRAF antibodies bound to protein G-coupled Sepharose beads, while IgG was used as a negative control. Post-immunoprecipitation supernatants were probed with anti BRAF antibody by western blots to determine pull-down efficiency. […] The reactions were terminated by adding 4× sodium dodecyl sulfate (SDS) sample buffer and boiling the mixture at 100° C. for 5 min. The samples were then electrophoresed, immunoblotted and probed for relative protein levels of phosphorylated MEK and total MEK to assess the kinase activity of the immunoprecipitated BRAF.

[7] = tested on: BRN2; assay: Chromatin immunoprecipitation, BRN2 at MITF-M promoter; format: cell-based, human; conditions: G-361 cells, 200 μM I3C, 48 hours
Procedure: […] Proteins were crosslinked to DNA by the addition of formaldehyde at 2.5% of the final concentration for 5 minutes at room temperature to cultured cells. Fixation was quenched with glycine for a final concentration of 125 mmol/1 for 5 minutes. Harvested cells were sonicated and the chromatin was immunoprecipitated overnight and 15 μl of mouse anti-Brn2 antibodies (Santa Cruz Biotechnology) was added to the cell lysates to immunoprecipitate the chromatin-bound Brn2 protein. A fragment of the MITF-M promoter (−170+120) containing the BRN2 binding site (−53 to −27) was amplified using the primers—MITF-M Forward: 5′-CGTCACTTAAAAAGGTACCTTTATATTTATG-3′ (SEQ ID NO:7) MITF-M Reverse: 5′-TGT TTTAGC TAGCACCAATCCAGTGAGAGACGG-3′ (SEQ ID NO:8) by cycling 36 times (95° C., 30 s/52° C. 30 s/72° C., 30 s) with a 72° C., 10 min extension. The PCR products were electrophoretically fractionated on a 1.5% agarose gel and visualized using a transilluminator.

[8] = tested on: cultured human cancer cells; conditions: Wong et al. 1997; cited from earlier work
[9] = biological target: T1, BRAF-V600E; assay: BRAF kinase assay on BRAF immunoprecipitated from pretreated G-361 cells; format: biochemical; conditions: G-361 cells treated 48 hours; 200 μM or 400 μM I3C, 10 μM Vemurafenib
Procedure: as §1

[10] = tested on: phosphorylated Erk/MAPK; assay: Immunofluorescence of tumor xenograft sections for ERK-p; format: in vivo, human; conditions: I3C treated vs untreated animals
Procedure: Approximately 1 million G361 melanoma cells in a total volume of 0.1 ml of Matrigel were injected subcutaneously into each lateral flank of NIH III athymic nude mice. The resulting tumors were allowed to grow to a mean starting volume of 146±10 mm^3. The animals were then randomized into two groups; a vehicle control group that was treated with DMSO and an […] treated group that were injected daily with 200 mg/kg body weight of […]. The resulting tumor volumes were measured every other day for four weeks using calipers. The tumor volumes were calculated using the standard formula: […], and changes in tumor volumes were calculated using the formula: 100+{(Tf-Ti)/Ti×100}, where Tf is the final mean tumor volume and Ti is the initial mean tumor volume. At terminal sacrifice, tumor xenografts were harvested, and a portion of each tumor was fixed in 4% para-formaldehyde for 1 hour at room temperature, followed by a phosphate-buffered saline (PBS) wash and subsequently immersed in 3% sucrose overnight at 4° C. The resulting tissues were embedded in OCT and 10 μm thin sections were taken for immunofluorescence studies.

T1 sequence (P15056 whole entry V600E): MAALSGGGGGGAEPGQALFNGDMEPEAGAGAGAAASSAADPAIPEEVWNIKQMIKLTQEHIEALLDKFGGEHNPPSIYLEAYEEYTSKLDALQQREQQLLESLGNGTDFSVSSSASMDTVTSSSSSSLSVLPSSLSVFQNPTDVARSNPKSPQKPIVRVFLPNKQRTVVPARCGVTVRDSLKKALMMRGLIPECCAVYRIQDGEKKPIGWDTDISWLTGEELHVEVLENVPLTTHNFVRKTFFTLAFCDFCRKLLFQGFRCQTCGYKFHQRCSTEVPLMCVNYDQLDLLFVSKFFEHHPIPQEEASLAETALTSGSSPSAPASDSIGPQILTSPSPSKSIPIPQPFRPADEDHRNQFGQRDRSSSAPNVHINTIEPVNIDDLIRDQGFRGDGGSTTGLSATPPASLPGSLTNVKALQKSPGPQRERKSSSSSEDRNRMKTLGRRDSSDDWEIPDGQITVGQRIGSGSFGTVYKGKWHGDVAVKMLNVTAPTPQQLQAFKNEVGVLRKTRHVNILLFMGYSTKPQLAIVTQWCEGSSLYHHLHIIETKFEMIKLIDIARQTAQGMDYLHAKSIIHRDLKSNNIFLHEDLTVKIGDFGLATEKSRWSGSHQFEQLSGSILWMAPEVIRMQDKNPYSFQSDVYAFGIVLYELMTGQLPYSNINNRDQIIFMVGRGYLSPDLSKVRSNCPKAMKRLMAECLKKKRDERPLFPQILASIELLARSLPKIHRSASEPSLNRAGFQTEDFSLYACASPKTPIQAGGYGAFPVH

**Q.** Which antiproliferative response [1] does the source give for OCc1cn(Cc2ccccc2)c2ccccc12 [1-benzyl I3C, 1-benzyl indole-3-carbinol] here?
**A.** No such antiproliferative response

**Q.** And the “LEF1 interactions with the MITF-M promoter” value [2]?
**A.** significantly disrupted nuclear LEF1 interactions with this promoter

**Q.** And the “Wnt signaling (TOP luciferase activity)” value ([3]; G361 cells in Wnt conditioned media, 1-benzyl I3C 24 hours)?
**A.** Wnt signaling was significantly attenuated

**Q.** What about the “1-benzyl I3C induced inhibition of luciferase activity, constitutively active LRP6 transfected cells” value ([3]; G361 cells, 1-benzyl I3C 24 hours) of the same compound?
**A.** significantly rescued

**Q.** What about the “Wnt signaling (luciferase activity), wild-type vector transfected cells” value ([3]; G361 cells, 1-benzyl I3C 24 hours vs vehicle) of the same compound?
**A.** significantly inhibited the Wnt signaling

**Q.** What about the “G1 cell cycle arrest” value [4] of the same compound?
**A.** no comparable effect on normal melanocytes

**Q.** With OCc1c[nH]c2ccccc12 [I3C, indole-3-carbinol] as the compound, how does the “phosphorylated Erk/MAPK levels” value ([5]; G-361 and DM738 cells, 72 hour time course) read?
**A.** strongly down regulated

**Q.** And the “phosphorylated Erk/MAPK levels” value ([5]; G-361 cells, 48 hours, 10 μM Vemurafenib or 10 μM U0126)?
**A.** down regulated

**Q.** And the “phosphorylated Erk/MAPK levels” value ([5]; SK-MEL-2 cells, 72 hour time course)?
**A.** no effect

**Q.** And the “BRAF-V600E activity (phosphorylated MEK), direct in vitro incubation” value [6]?
**A.** strongly down regulated BRAF-V600E activity

**Q.** What about the “endogenous BRN2 binding to the MITF-M promoter” value [7] of the same compound?
**A.** significantly down regulated endogenous BRN-2 interactions with this promoter

**Q.** What about the “optimal concentration for the anti-proliferative effect” value [8] of the same compound?
**A.** 200 µM

**Q.** What about the “BRAF-V600E enzymatic activity (phosphorylated MEK) after cellular treatment” value [9] of the same compound?
**A.** significantly inhibited BRAF-V600E enzymatic activity

**Q.** What about the “level of phosphorylated Erk/MAPK in tumor xenografts” value [10] of the same compound?
**A.** strongly down regulated
